Assay results taken from PubChem BioAssay (NCI).
Values joined by “and” are separate entries in the source; they are usually repeats but may differ in a detail not shown here. Identical values can stand only once.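 Test compounds were applied to cells in 96-well plates for 48 hours at 5 doses. GI50: concentration for 50% inhibition of growth. TGI denotes the concentration required for complete inhibition of growth.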

Columns and labels:
Test in all cases: growth of human tumour cells (NCI), 48 h
HS 578T breast = test system: HS 578T breast
SN12C renal = test system: SN12C renal
HCC-2998 colon = test system: HCC-2998 colon
TK-10 renal = test system: TK-10 renal
IGROV1 ovarian = test system: IGROV1 ovarian
A549 NSCLC = test system: A549 NSCLC
NCI-H460 lung = test system: NCI-H460 lung
SNB-75 CNS = test system: SNB-75 CNS
A498 renal = test system: A498 renal
MDA-MB-231 breast = test system: MDA-MB-231 breast

SMILES	TGI (HS 578T breast) [µM]	TGI (SN12C renal)	TGI (HCC-2998 colon)	TGI (TK-10 renal)	TGI (IGROV1 ovarian)	TGI (A549 NSCLC)	TGI (NCI-H460 lung)	TGI (SNB-75 CNS)	TGI (A498 renal)	TGI (MDA-MB-231 breast) [µM]	GI50 (HS 578T breast) [µM]	GI50 (SN12C renal) [µM]	GI50 (HCC-2998 colon)	GI50 (TK-10 renal)	GI50 (IGROV1 ovarian)	GI50 (A549 NSCLC) [µM]	GI50 (NCI-H460 lung) [µM]	GI50 (SNB-75 CNS) [µM]	GI50 (A498 renal)	GI50 (MDA-MB-231 breast)
C#CCSc1n[nH]c(-c2ccco2)n1	> 100	> 100 µM	> 100 µM	> 100 µM	> 100 µM	> 100 µM	> 100 µM	> 100 µM	> 100 µM	> 100										
O=C(CSc1nc2ccccc2nc1-c1ccccc1)Nc1ccc(Cl)cc1	70	99.2 µM	> 100 µM	> 100 µM	> 100 µM	> 100 µM	36.8 µM	59.4 µM	> 100 µM	> 100	16.1	22.6	46.4 µM	35.9 µM	46.4 µM	32	11.8	18.7	31.4 µM	30.5 µM
CC1=C(C(=O)Nc2ccccc2C)C(c2ccc(C3C(C(=O)Nc4ccccc4C)=C(C)NC(C)=C3C(=O)Nc3ccccc3C)cc2)C(C(=O)Nc2ccccc2C)=C(C)N1	55.3	2.85 µM	9.31 µM	24.2 µM	9.5 µM	27.8 µM	24.9 µM	30.9 µM	29 µM	15.2										
COc1cc(-c2nc(NC(C)=O)sc2-c2ccnc(NCCNS(=O)(=O)c3ccccc3)n2)ccc1Cl	> 100	> 100 µM	> 100 µM	> 100 µM	> 100 µM	> 100 µM	10.8 µM	7.19 µM	8.97 µM	> 100	6.61	5.47	20.9 µM	6.33 µM	6.75 µM	4.5	3.08	1.49	2.96 µM	3.81 µM
CCc1c2c(nc3cc4c(c(N)c13)OCO4)-c1cc3c(c(=O)n1C2)COC(=O)[C@]3(O)CC	> 100	> 100 µM	6.38 µM and 0.676 µM	6.25 µM		1.01 µM and 1.47 µM	0.47 µM and 0.157 µM		0.252 µM and 0.459 µM	> 100		< 0.001	0.0317 µM and 0.0431 µM	3.03 µM and 0.483 µM	0.161 µM and 0.128 µM	< 0.001	< 0.001	< 0.001	0.00758 µM and 0.0334 µM	0.0246 µM and 0.0488 µM
CNC(=O)c1c(NC(=O)c2ccc(C(F)(F)F)cc2)sc2c1CCC(=O)C2	13.2	24.1 µM	4.12 µM	21.2 µM	4.89 µM	8.49 µM	4.19 µM	3.95 µM	7.07 µM	2.51	0.774	0.69	1.09 µM	0.815 µM	0.471 µM	1.02	0.89	0.714	2.33 µM	0.529 µM
Cc1cccc(-c2nn3c(c2-c2ccnc4ccc(C(N)=O)cc24)CCC3)n1	> 100	> 100 µM	> 100 µM	> 100 µM	> 100 µM	> 100 µM	> 100 µM	> 100 µM	> 100 µM	> 100	> 100	> 100	> 100 µM	> 100 µM	> 92.3 µM	> 100	> 100	> 100	97.5 µM	> 100 µM
COc1cc2c3c(c4ccc(OC)c(OC)c4c2cc1OC)CN1CCC[C@@H]1C3	0.593	18 µM	1.78 µM	3.88 µM	0.935 µM		2.09 µM	0.0947 µM	0.0681 µM	0.156										
Cc1ncc(C(=O)Nc2ccc(CN3CCN(C)CC3)c(C(F)(F)F)c2)cc1C#Cc1cnc(N)c2cnccc12	0.696	11.5 µM	15.2 µM	1.93 µM	0.282 µM	4.87 µM	1.54 µM	0.616 µM	0.3 µM	0.165	0.058	0.037	0.133 µM	0.132 µM	0.0294 µM	0.202	0.0647	0.0899	0.0511 µM	0.0289 µM
CC1=CC(=O)CC(C)(C)C1(O)/C=C/C(C)=C/C(=O)O (stereo not drawn)	> 100	> 100 µM	> 100 µM	> 100 µM	> 100 µM	> 100 µM	> 100 µM	> 100 µM	> 100 µM	> 100										
C/C1=C/C(=O)O[C@@H]2C[C@@H](CC[C@H](C)/C=C\C=C\CC1)O[C@@](O)([C@@H]1CSC(=O)N1CO)C2	0.0606	> 57.4 µM	65.4 µM	0.341 µM	0.0928 µM	> 46 µM	34.1 µM	0.0523 µM	0.0724 µM	> 60.4	0.0174	0.0485	13 µM	0.0921 µM	0.0251 µM	0.0465	0.241	0.0151	0.0183 µM	0.0634 µM
Sc1ccc2ccccc2c1CNCc1ccccc1	67.2	25.7 µM	> 100 µM	> 100 µM	6.97 µM	> 100 µM	> 100 µM	44.2 µM	95.5 µM	43.9										
C[C@H](N)C(=O)N[C@@H]1[C@H]2C(=C(O)C[C@@H](O)[C@@H]2O)C(=O)O[C@]1(C)C(Cl)Cl	0.634	1.23 µM and 1.67 µM	0.745 µM and 1.16 µM	6.92 µM and 2.06 µM	7.79 µM and 2.43 µM	4.92 µM and 2.81 µM	1.4 µM and 1.2 µM	3.85 µM and 1.07 µM	2.27 µM and 1.56 µM	1.14		0.212	0.224 µM	0.685 µM	0.441 µM	0.271	0.146	0.226		
Fc1ccc(-c2nn3c(CNc4ccccc4)nnc3s2)cc1	> 100	90.8 µM	25 µM	> 100 µM	> 100 µM	> 100 µM	> 100 µM	> 100 µM	> 100 µM	> 100	49.7	22.7	0.585 µM	30.2 µM	49.3 µM	36.7	52.3	52.2	37 µM	27.9 µM
